Source: patent US8124655B2, “Use of LR-90 and LR-102 to overcome insulin resistance” (City of Hope, priority 2007, dated 2012)

Tests used:
[1] = test system: Zucker diabetic fatty (ZDF) rat; test: Renal function: urinary albumin and total protein excretion, kidney weights (Example 1); assay type: in vivo
Protocol: All animal studies were carried out in compliance with policies outlined in The Guide for the Care and Handling of Laboratory Animals (NIH Publication No. 85-23) that have been approved by the City of Hope Animal Care Committee. Male ZDF (fa/fa) and male Zucker lean (+/+; ZL) rats were obtained at the age of 5 weeks from Charles River Laboratories (Wilmington, Mass., USA). Animals were maintained with free access to Purina 5008 rat chow (Purina Mills, St Louis, Mo., USA) and tap water. All animals were individually housed in a controlled room with a 12 h dark-light cycle. At the age of 13 weeks, the animals were divided into the following groups: (1) ZL rats (n=6); (2) ZDF rats without treatment (n=6); and (3) ZDF rats treated with LR-90 at 50 mg/l in their drinking water (ZDF90, n=6). The dose of LR-90 was chosen after previous experiments with type 1 diabetic nephropathy. Food, water intake, body weight and blood glucose levels were monitored periodically. Systolic blood pressure was measured by tail-cuff plethysmography (CODA2 Blood Pressure System; Kent Scientific, Torrington, Conn., USA). Animals were killed at the age of 40 weeks by over-anaesthetisation with isoflurane and cardiac puncture. Blood samples were collected from each animal and transferred accordingly into heparinised vacutainer tubes; they were later centrifuged (1,500×g for 10 min at 4° C.) for plasma isolation. The kidneys were removed immediately, rinsed in PBS and weighed, after which specimens were snap-frozen in liquid nitrogen or fixed in 10% (vol./vol.) neutral buffered formalin for further biochemical and histological analyses. Plasma glucose, lipids and Nε-(carboxymethyl)lysine-AGE Plasma glucose was measured using a glucose analyzer (2300 STAT; YSI, Yellowsprings, Ohio, USA). Total plasma triacylglycerol and cholesterol concentrations were quantified using the Vitros 250 Chemistry System (Johnson & Johnson, Rochester, N.Y., USA). Nε-(Carboxymethyl)lysine (CML)-AGE was liberated from plasma proteins by acid hydrolysis and then measured by ion-pair reversed-phase liquid chromatography/tandem mass spectrometry as described previously.
Renal function was assessed by measuring urinary albumin and total protein excretion. Prior to killing, rats were housed in metabolism cages for 24 h urine collection. Urinary albumin was quantified using the Nephrat kit according to manufacturer's instructions. Total urinary protein was measured using a kit (DC Assay; Bio-Rad Laboratories, Hercules, Calif., USA).

[2] = test system: Zucker diabetic fatty (ZDF) rat; test: Kidney lipid peroxidation (malondialdehyde, TBARS), Example 1; assay type: in vivo; conditions: ZDF animals
Protocol: To assess lipid peroxidation in renal cortical homogenates, malondialdehyde, an end-product of lipid peroxidation, was measured as thiobarbituric acid reactive substances by calorimetric reaction as described. Reaction was carried in the presence of EDTA and antioxidant butylated hydroxytoluene, and the absorbance was measured at 532 nm (UV-1601; Shimadzu Scientific Instruments, Columbia, Md., USA). Hydrolysed 1,1,3,3-tetramethoxypropane was used as standard [prepared by incubating 10 mmol/l tetramethoxypropane with 1% (vol./vol.) H2SO4 for 2 h at room temperature]. Results are expressed as nanomole malondialdehyde per milligram protein.

[3] = test system: Zucker diabetic fatty rats (ZDF, fa/fa); test: Pancreatic islet immunohistochemistry and PAMS staining (Example 2); assay type: in vivo, rat
From the text: FIG. 7. Immunohistochemical analysis and quantification of islet cells. ZDF GM fa/fa rats and lean control rats were fed with high fat diet for 30 weeks and received either nothing or LR-90 or LR-102 in their drinking water. Pancreatic sections from various groups of animals were stained with anti-insulin antibody or anti-glucagon antibody. A. Representative images with the overlay of the insulin (green) and glucagon (red staining). […] B. Insulin-positive β-cell-to-glucagon-ratio was also measured from these images.
FIG. 8. Periodic acid methenamine silver (PAMS) staining of pancreatic tissues. Sections from cryopreserved pancreas of each group of animals on the study were stained with PAMS and examined under light microscopy.
(§1) LR-90 at 50 mg/L of drinking water was given to a subgroup of ZDF rats after the rats developed spontaneous diabetes at 13 weeks of age. At 40 weeks of age, and before killing the animals, their weight was measured; HbA1c, plasma glucose, insulin, triglycerides, cholesterol, CRP and urinary albumin and creatinine concentrations were measured. After euthanizing all animals, organs such as the kidneys, eyeballs, liver, heart, aortae and pancreas were dissected and subjected to immunohistochemical staining, RT-PCR, Western blotting and microscopy.

[4] = test system: Zucker diabetic fatty rats (ZDF, fa/fa); test: Kidney histology, gene and protein expression and lipid peroxidation (Example 2); assay type: in vivo, rat
Protocol: FIG. 9. Representative photomicrographs of immunohistochemicals stainings of kidney tissues. A. Periodic Acid-Metheamine Silver (PAMS); B, Masson'S Trichrome; C, AGE; and D, RAGE stainings of kidneys from lean, ZDF and LR-90 treated ZDF rats.
FIG. 10. mRNA expression of TGF-B1, CTGF, fibronectin and RAGE in the kidney cortex. Renal cortices from each treatment group were analyzed by for TGF-B1, CTGF, fibronectin and RAGE gene expression by RT-PCR. A. Representative gel profiles; B, Quantitative results of band densities. 18s/18 sII were used as internal controls.
FIG. 11. Protein expression of TGF-B1 and CTGF in the kidney cortex. Renal cortices from each treatment group were analyzed by for TGF-B1 and CTGF protein expression by Western blotting and immunostaining with specific antibodies. Representative gel profiles and densiitometric quantitation of protein bands. *P<0.01 vs. lean, **P<0.01 vs. ZDF
FIG. 12. Representative immunohistochemical staining for TGF-B1 and CTGF in the kidney cortex. Renal cortices from each treatment group were probed with specific antibodies against TGF-β1 and CTGF.
FIG. 13. Effect of LR-90 on kidney lipid peroxidaton. A. Kidney lipid peroxides were analyzed by measuring malondialdehyde (MDA) in tissue homogenates using the TBARS method. B. Correlation of lipid peroxidation with urinary albumin excretion rates. *P<0.05 vs. ZDF, **P<0.01 vs. ZDF.
as §1, with “The present Example presents the results of an investigation of the effects of LR-90, an inhibitor of AGE/ALE formation, in male Zucker diabetic fatty rats (ZDF, fa/fa) fed with Purina 5008 diet until 40 weeks of age, and their hetorozygous lean littermates (ZDF fa/+) as non-hyperglycemic controls. LR-90” for “LR-90”

[5] = test system: experimental type 1 diabetic nephropathy; conditions: previous studies (24); cited from earlier work
[6] = ZDF rats, LR-90 50 mg/l in drinking water, at 40 weeks of age, mean ± SEM

## CC(C)(Oc1ccc(NC(=O)Nc2ccc(Cc3ccc(NC(=O)Nc4ccc(OC(C)(C)C(=O)O)cc4)c(Cl)c3)cc2Cl)cc1)C(=O)O [LR-90, methylene bis[4,4′-(2-chlorophenylureidophenoxyisobutyric acid)]]
[1]; [6]
  Mean Kidney Weights: 4.23 ± 0.27 g
  Relative Kidney Weights: 12.23 ± 0.78 g/kg
  Total Urinary Protein: 176.4 ± 43.3 mg/24 h
  Urinary Albumin: 25.8 ± 4.8 mg/24 h
  Urine Volume: 137 ± 24 mL/day
[1]; vs untreated ZDF rats, p<0.01
  prevention of increase in total urinary protein: 67%
[1]; vs untreated ZDF rats, p<0.05
  prevention of increase in urinary albumin: 42%
[2]
  reduction of kidney lipid peroxidation: ~40%
[3]; FIG. 8
  PAMS staining of pancreatic islets: amelioration
[3]; FIGS. 7 and 8
  number of undamaged insulin-secreting islet cells in the pancreas: significantly higher number
[4]; ZDF animals, MDA by TBARS, Example 2
  reduction of kidney lipid peroxidation: ~40%
[4]; kidney of ZDF rats, FIGS. 9a and b
  glomerulosclerosis, tubular degeneration and collagen deposition: prevented
[4]; kidney of ZDF rats, FIGS. 9c and d
  renal AGE and RAGE accumulation: reduced
[4]; kidneys of ZDF rats, FIGS. 10, 11 and 12
  TGF-β1 and CTGF gene and protein expression, fibronectin and RAGE mRNA: significantly attenuated
[5]
  development of experimental type 1 diabetic nephropathy: prevented
